One test deals with SYK kinase (Homo sapiens, UniProt P43405). Kind of test: SYK kinase assay (HTRF KinEASE-TK). The conditions noted are these: read-out: Syk inhibition IC50. Type of test: biochemical. How it is done:
A homogeneous time-resolved fluorescence (HTRF) assay was performed to assess the potential inhibitory effect of compounds on SYK kinase. The HTRF KinEASE-TK kit (Cisbio) was used. During the step, kinase will phosphorylate the substrate, and the resulting fluorescence signal is proportional to the phosphorylation level. The assay was performed in the following steps: First, the testing compounds were diluted 1:3 in succession in DMSO. The 1× kinase buffer contained 1 volume of 5× enzymatic buffer with 4 volumes of distilled water, 5 mM MgCl2, 1 mM MnCl2, and 1 mM DTT. The assays were assembled in 384 well plates (784075, Greiner) where 10 nl of compound solutions were added into each well, and the plates were centrifuged at 1000 g for 1 min. Then, 5 μl of 2×SYK in 1× kinase buffer were added to each well. The plates were centrifuged at 1000 g for 30 s and then incubated at room temperature for 10 min. The reaction was initiated by adding […] of premixed 2×TK-substrate-biotin and ATP mixture in 1× kinase buffer to the assay plates. The plates were centrifuged at 1000 g for 30 s and incubated at room temperature for 30 min. Phosphorylation was detected by adding 5 μl of 4×Sa-XL 665 in HTRF detection buffer into each well of the assay plates. The plates were centrifuged plates at 1000 g for 30 sec, and then incubated at room temperature for 1 h. Finally, the plates were read on an Envision 2104 plate reader (PerkinElmer) and the fluorescence signal was measured at 615 nm (Cryptate) and 665 nm (XL665).
A ratio (665/615 nm) was calculated for each well. The inhibition ratio was calculated as follow: […]
IC50 was calculated by fitting % Inhibition values and log of compound concentrations to nonlinear regression (dose response−variable slope) with GraphPad 6.0.

In a further test the target is T1, Ba/F3-TEL-SYK cells (Homo sapiens, UniProt P43405).
T1 construct: fused on or other part: N-terminal part of TEL (ETV6) with its oligomerising PNT/SAM domain, fused before the SYK part that carries the kinase domain; P41212 (Transcription factor ETV6)
Kind of test: Ba/F3-TEL-SYK cell-based assay (CellTiter-Glo proliferation). To be noted: 72 hr, read-out: BaF3 Cell assay IC50. How it is done:
CellTiter-Glo® Luminescent Cell Viability Assay was used to determine the number of viable cells in culture based on quantitation of the ATP present, as an indicator of metabolically active cells. The assay was performed in the following steps: First, the testing compounds were dissolved in DMSO to make a stock solution. The stocks (10 mM) were then diluted to varying concentrations: […], 0.305 and 0.102 μM. An aliquot of 0.2 μl of diluted compounds were added to the 384 well assay plate. Second, added 40 μl of cell suspension with 800 Ba/F3-TEL-SYK cells into each well and incubated the plate at 37° C., 5% CO2 for 72 hr. Then, added 20 μl Cell Titer-Glo Reagent into each well of the cell culture plate. Mixed the contents for 2 min on an orbital shaker to lyse cells, and rest the plate at room temperature for 30 min. Finally, luminescence values were obtained using an Envision 2104 plate reader (PerkinElmer) and calculated the average data and Standard Deviation (SD) of DMSO and Reference (GS-9973, 1 μM) as high control and low control. To determine the IC50 value, fit the data using non-linear regression equation.
A general note: ATP-based viability assays read luminescence as a measure of living cells.

Structures are written as SMILES. Like-named read-outs stand apart in the source and are kept apart here.

26 compounds from patent US12577248B2, “Substituted [1,2,4]triazolo[1,5-a]pyrazines as spleen tyrosine kinase inhibitors” (NANJING RUIJIE PHARMA CO., LTD., priority 2020, dated 2026) can be followed below.

The IC50 is the point on the concentration scale where inhibition reaches its midpoint.

As for `COc1ccc(Nc2nc(-c3ccc4cn[nH]c4c3)cn3ncnc23)cc1OC` [I3, N-(3,4-dimethoxyphenyl)-6-(1H-indazol-6-yl)-[1,2,4]triazolo[1,5-a]pyrazin-8-amine], the IC50 at SYK kinase (class symbols) is ≤ 50 nM. The GI50 on Ba/F3-TEL-SYK cells was ≤ 50 nM.

In the case of `O=C(O)c1ccc(NC(=O)c2cccc(-c3cn4ncnc4c(Nc4ccc(N5CCOCC5)cc4)n3)c2)cc1` [I7, 4-(3-(8-((4-morpholinophenyl)amino)-[1,2,4]triazolo[1,5-a]pyrazin-6-yl)benzamido)benzoic acid], the IC50 on SYK kinase (class symbols) was ≤ 50 nM. Also, the GI50 at Ba/F3-TEL-SYK cells was > 5000 nM. For `COc1cc(Nc2nc(-c3ccc4cn[nH]c4c3)cn3ncnc23)ccc1N1CCN(C)CC1` [I12, 6-(1H-indazol-6-yl)-N-(3-methoxy-4-(4-methylpiperazin-1-yl)phenyl)-[1,2,4]triazolo[1,5-a]pyrazin-8-amine], in that order: ≤ 50 nM and ≤ 50 nM.

Turning to `CCN1CCN(c2ccc(Nc3nc(-c4ccc5cn[nH]c5c4)cn4ncnc34)cc2OC)CC1` [I16, N-(4-(4-ethylpiperazin-1-yl)-3-methoxyphenyl)-6-(1H-indazol-6-yl)-[1,2,4]triazolo[1,5-a]pyrazin-8-amine], on SYK kinase (class symbols), the IC50 was ≤ 50 nM. Moreover, on Ba/F3-TEL-SYK cells, the GI50 was ≤ 50 nM. `COc1cc(Nc2nc(-c3ccc4cn[nH]c4c3)cn3ncnc23)ccc1N1CCN(C(C)C)CC1` [I17, 6-(1H-indazol-6-yl)-N-(4-(4-isopropylpiperazin-1-yl)-3-methoxyphenyl)-[1,2,4]triazolo[1,5-a]pyrazin-8-amine]: at SYK kinase (class symbols), the IC50 was ≤ 50 nM. For the same compound, the GI50 on Ba/F3-TEL-SYK cells lay in the range of 50 to 500 nM. Regarding `COCCN1CCN(c2ccc(Nc3nc(-c4ccc5cn[nH]c5c4)cn4ncnc34)cc2OC)CC1` [I18, 6-(1H-indazol-6-yl)-N-(3-methoxy-4-(4-(2-methoxyethyl)piperazin-1-yl)phenyl)-[1,2,4]triazolo[1,5-a]pyrazin-8-amine], the IC50 at SYK kinase (class symbols) was ≤ 50 nM. Moreover, at Ba/F3-TEL-SYK cells, the GI50 is ≤ 50 nM. As for `FC(F)Oc1cc(Nc2nc(-c3ccc4cn[nH]c4c3)cn3ncnc23)ccc1N1CCOCC1` [I21, N-(3-(difluoromethoxy)-4-morpholinophenyl)-6-(1H-indazol-6-yl)-[1,2,4]triazolo[1,5-a]pyrazin-8-amine], on SYK kinase (class symbols), the IC50 was ≤ 50 nM. In addition, the GI50 at Ba/F3-TEL-SYK cells lay in the range of 50 to 500 nM.

Regarding `CC1(O)CCN(c2ccc(Nc3nc(-c4ccc5cn[nH]c5c4)cn4ncnc34)cc2)CC1` [I23, 1-(4-((6-(1H-indazol-6-yl)-[1,2,4]triazolo[1,5-a]pyrazin-8-yl)amino)phenyl)-4-methylpiperidin-4-ol], the IC50 on SYK kinase (class symbols) is ≤ 50 nM. For the same compound, at Ba/F3-TEL-SYK cells, the GI50 is 50 to 500 nM. For `COc1cc(Nc2nc(-c3ccc4cn[nH]c4c3)cn3ncnc23)ccc1N1CCS(=O)(=O)CC1` [I24, 4-(4-((6-(1H-indazol-6-yl)-[1,2,4]triazolo[1,5-a]pyrazin-8-yl)amino)-2-methoxyphenyl)thiomorpholine 1,1-dioxide], in that order: ≤ 50 nM and ≤ 50 nM. For `O=S1(=O)CCN(c2ccc(Nc3nc(-c4ccc5cn[nH]c5c4)cn4ncnc34)cc2)CC1` [I25, 4-(4-((6-(1H-indazol-6-yl)-[1,2,4]triazolo[1,5-a]pyrazin-8-yl)amino)phenyl)thiomorpholine 1,1-dioxide], in that order: ≤ 50 nM and 50 to 500 nM. Consider `COc1cc(Nc2nc(-c3ccc4c(c3)OC(C)(C)C(=O)N4)cn3ncnc23)ccc1N1CCOCC1` [I26, 7-(8-((3-methoxy-4-morpholinophenyl)amino)-[1,2,4]triazolo[1,5-a]pyrazin-6-yl)-2,2-dimethyl-2H-benzo[b][1,4]oxazin-3(4H)-one], for which, on SYK kinase (class symbols), the IC50 lay within 50 to 500 nM. The GI50 at Ba/F3-TEL-SYK cells lay within 50 to 500 nM. On to `COc1cc(Nc2nc(-c3ccc4c(c3)OCC(=O)N4)cn3ncnc23)ccc1N1CCOCC1` [I28, 7-(8-((3-methoxy-4-morpholinophenyl)amino)-[1,2,4]triazolo[1,5-a]pyrazin-6-yl)-2H-benzo[b][1,4]oxazin-3(4H)-one], for which the IC50 at SYK kinase (class symbols) was ≤ 50 nM. The GI50 at Ba/F3-TEL-SYK cells lay within 50 to 500 nM. With `COc1cc(Nc2nc(-c3ccc4c(F)n[nH]c4c3)cn3cnnc23)ccc1N1CCOCC1` [I44, 6-(3-fluoro-1H-indazol-6-yl)-N-(3-methoxy-4-morpholinophenyl)-[1,2,4]triazolo[4,3-a]pyrazin-8-amine], at SYK kinase (class symbols), the IC50 was > 5000 nM. In the case of `Fc1n[nH]c2cc(-c3cn4cnnc4c(Nc4ccc(N5CCOCC5)cc4)n3)ccc12` [I45, 6-(3-fluoro-1H-indazol-6-yl)-N-(4-morpholinophenyl)-[1,2,4]triazolo[4,3-a]pyrazin-8-amine], on SYK kinase (class symbols), the IC50 is > 5000 nM. The same measure, in the same setting: to `COc1cc(Nc2nc(-c3ccc4c(C)n[nH]c4c3)cn3cnnc23)ccc1N1CCOCC1` [I46, N-(3-methoxy-4-morpholinophenyl)-6-(3-methyl-1H-indazol-6-yl)-[1,2,4]triazolo[4,3-a]pyrazin-8-amine] belongs 500 to 5000 nM; to `COc1cc(Nc2nc(-c3ccc4c(C)c[nH]c4c3)cn3cnnc23)ccc1N1CCOCC1` [I47, N-(3-methoxy-4-morpholinophenyl)-6-(3-methyl-1H-indol-6-yl)-[1,2,4]triazolo[4,3-a]pyrazin-8-amine], 500 to 5000 nM. On to `c1cc(N2CCOCC2)ccc1Nc1nc(-c2ccc3cn[nH]c3c2)cn2cnnc12` [I48, 6-(1H-indazol-6-yl)-N-(4-morpholinophenyl)-[1,2,4]triazolo[4,3-a]pyrazin-8-amine], for which, at SYK kinase (given as number), the IC50 was > 10000 nM. Consider `c1nc2c(Nc3ccc(N4CCC5(COC5)C4)cc3)nc(-c3ccc4cn[nH]c4c3)cn2n1` [I63, N-(4-(2-oxa-6-azaspiro[3.4]octan-6-yl)phenyl)-6-(1H-indazol-6-yl)-[1,2,4]triazolo[1,5-a]pyrazin-8-amine], for which the IC50 at SYK kinase (class symbols) is > 5000 nM. On to `c1nc2c(Nc3ccc(N4CCC5(COC5)C4)cc3)nc(-c3ccc4cc[nH]c4c3)cn2n1` [I64, N-(4-(2-oxa-6-azaspiro[3.4]octan-6-yl)phenyl)-6-(1H-indol-6-yl)-[1,2,4]triazolo[1,5-a]pyrazin-8-amine], for which the concentration for half-maximal inhibition (IC50) at SYK kinase (class symbols) is > 5000 nM.

With `c1cc(N2CCOCC2)ccc1Nc1nc(-c2ccc3[nH]ncc3c2)cn2cnnc12` [I65, 6-(1H-indazol-5-yl)-N-(4-morpholinophenyl)-[1,2,4]triazolo[4,3-a]pyrazin-8-amine], at SYK kinase (class symbols), the IC50 was > 5000 nM.

With `c1cc2cc(-c3cn4cnnc4c(Nc4ccc(N5CCOCC5)cc4)n3)ccc2[nH]1` [I66, 6-(1H-indol-5-yl)-N-(4-morpholinophenyl)-[1,2,4]triazolo[4,3-a]pyrazin-8-amine], at SYK kinase (class symbols), the IC50 was > 5000 nM.

For `COc1cc(Nc2nc(-c3ccc4[nH]ncc4c3)cn3cnnc23)ccc1N1CCOCC1` [I67, 6-(1H-indazol-5-yl)-N-(3-methoxy-4-morpholinophenyl)-[1,2,4]triazolo[4,3-a]pyrazin-8-amine], on SYK kinase (class symbols), the IC50 lay in the range of 500 to 5000 nM. For `COc1cc(Nc2nc(-c3ccc4[nH]ccc4c3)cn3cnnc23)ccc1N1CCOCC1` [I68, 6-(1H-indol-5-yl)-N-(3-methoxy-4-morpholinophenyl)-[1,2,4]triazolo[4,3-a]pyrazin-8-amine], the IC50 at SYK kinase (class symbols) is > 5000 nM. With `CC(C)N1C[C@@H]2C[C@@H]1CN2c1ccc(Nc2nc(-c3ccc4cn[nH]c4c3)cn3ncnc23)cc1` [I71, 6-(1H-indazol-6-yl)-N-(4-((1S,4R)-5-isopropyl-2,5-diazabicyclo[2.2.1]heptan-2-yl)phenyl)-[1,2,4]triazolo[1,5-a]pyrazin-8-amine], the IC50 at SYK kinase (class symbols) is 50 to 500 nM. On the same count and under the same terms, to `c1nc2c(Nc3ccc(N4CCOCC4)c(OC4CC4)c3)nc(-c3ccc4cn[nH]c4c3)cn2n1` [I74, N-(3-cyclopropoxy-4-morpholinophenyl)-6-(1H-indazol-6-yl)-[1,2,4]triazolo[1,5-a]pyrazin-8-amine] belongs 50 to 500 nM. As to `c1nc2c(Nc3ccc(N4CC5CC4CN5C4COC4)c(OC4CC4)c3)nc(-c3ccc4cc[nH]c4c3)cn2n1` (centres unmarked) [I80, N-(3-cyclopropoxy-4-(5-(oxetan-3-yl)-2,5-diazabicyclo[2.2.1]heptan-2-yl)phenyl)-6-(1H-indol-6-yl)-[1,2,4]triazolo[1,5-a]pyrazin-8-amine], the IC50 on SYK kinase (class symbols) fell in the range of 500 to 5000 nM.
